In patent US20230064976A1, “AMORPHOUS FORM OR CRYSTALLINE FORM OF 2-INDOLINOLINOLOLYLSPIRONONE COMPOUNDS OR THEIR SALTS, SOLVENT COMPLEXES” (ASCENTAGE PHARMA (SUZHOU) CO., LTD., priority 2020, published 2023):

How the values were obtained:
Type in all cases: physicochemical
[1] = Stability test of crystalline form XI (different temperature and humidity)
Text: Place the sample of Form XI under high temperature, high humidity 75% RH conditions, and sample on Day 0, Day 5, Day 10 and Day 30 to investigate its content, related substances and crystal forms.

[2] = Dynamic Vapour Sorption (DVS) hygroscopicity test; conditions: for Weight Gain (80% RH): DVS
Procedure: The instruments used and their parameters are as follows: XPRD—X-ray powder diffraction, using Bruker D8 Advance Diffractometer to characterize solids. Copper target wavelength is 1.54 Å Kα radiation (40 kV, 40 mA), 0-20 goniometer, Mo monochromator, Lynxeye detector, detection angle is 3-40° 2θ/3-30° 20, step size It is 0.02° 20, the speed is 0.2 s/step, and the detection sample weight is >2 mg. TGA—Thermo gravimetric analysis, using TA Instruments Q500 TGA, the detection sample size is 1 mg-10 mg, the common detection method is Hi-Res sensitivity 3.0, Ramp 10.00° C./min, res 5.0 to 150.00° C., Ramp 10.00° C./min to 350° C. DSC—differential scanning calorimetry analysis, using TA Instruments Q200 DSC, the detection sample weight is 0.5 mg-5 mg, the gas flow rate is 40 mL/min, the common detection method is Equilibrate, 20° C., Ramp 10° C./min to 280° C.-300° C. DVS—Dynamic Vapour Sorption analysis, the detection sample weight is 1 mg-10 mg, the gas flow rate is 10 mL/min, the common detection method is equilibrium at 25° C., humidity 0%, isothermal for 90 minutes, if the weight percentage is less than 0.0100, the next isothermal test is aborted for 15.00 minutes, and the 10% step humidity is 80.00% every 90 minutes. If the weight percentage is less than 0.0100, the next isothermal test is aborted for 15.00 minutes, and the step humidity is 10% to 0.00% every 90 minutes. For the above identification and characterization results of XPRD, TGA, DSC, and DVS, please refer to FIG. 1-82, Table 1-15 and related description.
Take about 10 mg of crystalline form XI sample for Dynamic Vapour Sorption (DVS) test. The conclusions are described in Table 23 below.
About 10 mg of amorphous form XVI sample was taken for dynamic moisture adsorption (DVS) test. The conclusions are described in Table 25 below:
Dynamic water sorption (DVS) was performed on hydrobromide and maleate crystalline samples.

[3] = Stability testing of amorphous form XVI (60° C., 90% RH, light)
Procedure: The amorphous XVI sample was placed at 60° C., with high humidity 90% RH, under the light condition (light condition: 4500 Lux), and sampled on Day 0/5/10 to investigate its content, related substances and crystal form.

[4] = Competitive experiment of crystalline form X and crystalline form XI (suspension stirring, XRD); conditions: acetone/n-heptane, dichloromethane/n-heptane, acetone/water 1/3 v:v; room temperature 1-3 days
Text: Take an equal amount of crystalline form X and crystalline form XI samples, mix them uniformly, and sample for XRD detection.

[5] = Stability test for salt form screening (maleate crystalline form V; HPLC, XRD)
Procedure: Weigh 30 mg of compound (maleate crystalline form V) into a 8 mL glass bottle, then place it at high temperature (60° C., open), high humidity (room temperature/75% RH, open) and light (room temperature, white light: 6980 lux, ultraviolet 282 μW/cm2), take samples on Day 5/10/30 respectively for testing (HPLC, XRD).

[6] = Day 5—light condition (4500 Lux)
[7] = Day 10—light condition (4500 Lux)

CCN1C(C(=O)NC23CCC(C(=O)O)(CC2)CC3)C(c2cccc(Cl)c2F)C2(C(=O)Nc3cc(Cl)ccc32)C12CCCCC2.O (stereo not shown) [Form XI]
content and purity (summary) ([1]; 5 days, 10 days and 30 days, high temperature and high humidity): almost unchanged
Total impurity content (%) ([1]; Day 0): 0.31%
XPRD ([1]; Day 0): Form XI
content (%) ([1]; Day 0): 99.5%
Total impurity content (%) ([1]; Day 5—40° C.): 0.21%
content (%) ([1]; Day 5—40° C.): 99.6%
Total impurity content (%) ([1]; Day 5—60° C.): 0.15%
content (%) ([1]; Day 5—60° C.): 99.1%
Total impurity content (%) ([1]; Day 5—75% RH): 0.16%
content (%) ([1]; Day 5—75% RH): 99.1%
Total impurity content (%) ([1]; Day 10—40° C.): 0.25%
XPRD ([1]; Day 10—40° C.): Form XI
content (%) ([1]; Day 10—40° C.): 99.1%
Total impurity content (%) ([1]; Day 10—60° C.): 0.25%
XPRD ([1]; Day 10—60° C.): Form XI
content (%) ([1]; Day 10—60° C.): 100.1%
Total impurity content (%) ([1]; Day 10—75% RH): 0.24%
XPRD ([1]; Day 10—75% RH): Form XI
content (%) ([1]; Day 10—75% RH): 99.3%
Total impurity content (%) ([1]; Day 30—40° C.): 0.33%
XPRD ([1]; Day 30—40° C.): Form XI
content (%) ([1]; Day 30—40° C.): 98.9%
Total impurity content (%) ([1]; Day 30—75% RH): 0.32%
XPRD ([1]; Day 30—75% RH): Form XI
content (%) ([1]; Day 30—75% RH): 100.5%
XRPD before and after DVS [2]: Unchanged
water absorption during storage (conclusion from DVS) [2]: not easy to absorb water
DVS weight change of 0% RH-80% RH [2]: 0.17±0.05%
Weight Gain (80% RH) [2]: 0.01%

CCN1C(C(=O)NC23CCC(C(=O)O)(CC2)CC3)C(c2cccc(Cl)c2F)C2(C(=O)Nc3cc(Cl)ccc32)C12CCCCC2 (stereo not shown) [Form XVI]
Total impurity content (%) ([3]; Day 0): 0.38%
XPRD ([3]; Day 0): Amorphous
content (%) ([3]; Day 0): 99.4%
Total impurity content (%) ([3]; Day 5—60° C.): 0.48%
content (%) ([3]; Day 5—60° C.): 101.7%
Total impurity content (%) ([3]; Day 5—90% RH): 0.40%
content (%) ([3]; Day 5—90% RH): 102.1%
Total impurity content (%) [3, 6]: 0.44%
content (%) [3, 6]: 102.4%
Total impurity content (%) ([3]; Day 10—60° C.): 0.54%
XPRD ([3]; Day 10—60° C.): Amorphous
content (%) ([3]; Day 10—60° C.): 99.0%
Total impurity content (%) ([3]; Day 10—90% RH): 0.40%
XPRD ([3]; Day 10—90% RH): Amorphous
content (%) ([3]; Day 10—90% RH): 101.1%
Total impurity content (%) [3, 7]: 0.57%
XPRD [3, 7]: Amorphous
content (%) [3, 7]: 100.4%
XRPD before and after DVS [2]: Unchanged
water absorption during storage (conclusion from DVS) [2]: not easy to absorb water
DVS weight change of 0% RH-80% RH [2]: 2.5±0.5%
Weight Gain (80% RH) [2]: 2.32%

CCN1C(C(=O)NC23CCC(C(=O)O)(CC2)CC3)C(c2cccc(Cl)c2F)C2(C(=O)Nc3cc(Cl)ccc32)C12CCCCC2 (stereo not shown) [crystalline form X]
DVS water absorption 0% RH-60% RH ([2]; 0% RH-60% RH): < 0.1%
DVS weight change 60% RH-80% RH ([2]; 60% RH-80% RH): 1.6±0.2%
form after stirring mixed sample of form X and form XI (XRD) [4]: converted to crystalline form XI

Br.CCN1C(C(=O)NC23CCC(C(=O)O)(CC2)CC3)C(c2cccc(Cl)c2F)C2(C(=O)Nc3cc(Cl)ccc32)C12CCCCC2 (stereo not shown) [hydrobromide crystalline form VI]
Weight Gain (80% RH) [2]: 5.1% (hygroscopic)

CCN1C(C(=O)NC23CCC(C(=O)O)(CC2)CC3)C(c2cccc(Cl)c2F)C2(C(=O)Nc3cc(Cl)ccc32)C12CCCCC2.O=C(O)C=CC(=O)O (stereo not shown) [maleate crystalline form V]
Total impurity content (%) ([5]; Day 0): 1.20%
XPRD ([5]; Day 0): Form V
content and purity (summary) ([5]; Day 5/10/30, high temperature, high humidity and light): almost unchanged
Total impurity content (%) ([5]; Day 5—60° C.): 1.20%
XPRD ([5]; Day 5—60° C.): Form V
Total impurity content (%) ([5]; Day 5—75% RH): 1.10%
XPRD ([5]; Day 5—75% RH): Form V
Total impurity content (%) ([5]; Day 5—light): 1.10%
XPRD ([5]; Day 5—light): Form V
Total impurity content (%) ([5]; Day 10—60° C.): 1.20%
XPRD ([5]; Day 10—60° C.): Form V
Total impurity content (%) ([5]; Day 10—75% RH): 1.20%
XPRD ([5]; Day 10—75% RH): Form V
Total impurity content (%) ([5]; Day 10—light): 1.10%
XPRD ([5]; Day 10—light): Form V
Total impurity content (%) ([5]; Day 30—60° C.): 1.20%
XPRD ([5]; Day 30—60° C.): Form V
Total impurity content (%) ([5]; Day 30—75% RH): 1.10%
XPRD ([5]; Day 30—75% RH): Form V
XRPD before and after DVS [2]: Unchanged
Weight Gain (80% RH) [2]: 1.2% (slightly
